From patent US6872852B2, “Polyamine analogues as cytotoxic agents” (MediQuest Therapeutics, Inc., priority 2000, dated 2005)
pIC50, pKi: −log10 of the molar value.

Legend:
[1] = tested on: [1,4-14C]-putrescine uptake; details: Frydman et al.; cited from earlier work
[2] = tested on: putrescine uptake into MDA cells; details: read-out: Km for uptake into MDA cells; previously shown; cited from earlier work
SK-MEL-5 cells = assay: Cytotoxicity, MTS assay after 3 days; format: cell-based; details: 3 days incubation, read-out: IC50 against SK-MEL-5 cells
Protocol: Briefly, cells were plated at 1500 (SK-MEL-5) or 5000 (MDA) cells/well in a 96-well plate and allowed to adhere for 1 day. The indicated analogues were added and the cells were incubated for 3 days, when cell growth was evaluated by MTS assay (Promega). Vertical axis represents cell number as a % of no drug treatment controls. Additionally, significant activity was seen against PC-3 cells (see FIGS. 4 and 11).

MDA-MB-231 cells [3] = assay: Cytotoxicity, MTS assay after 3 days; format: cell-based, human; details: for pIC50: 3 days incubation, MTS, determined by the inventors, read-out: IC50 against MDA cells
Protocol: After a total of 3-days, cell growth was evaluated by MTS assay (Promega).

PC-3 cells [4] = assay: Cytotoxicity / cell growth, MTS assay; format: cell-based, human; details: for pIC50: determined by the present inventors; for inhibition of growth of PC-3 cells: 3 days
Protocol: Involvement of the pro-apoptotic caspase-3 enzyme in the action of OR 1313 is shown by the experiment represented in FIG. 10. Briefly, PC-3 cells were plated at 1000 cells/well in a 96-well plate and allowed to adhere for 1 day. 10 μM of ORI 1313 and 0, 5, or 15 μM Z-DEVD-fmk, a caspase inhibitor, were added and the cells were incubated for 3 days. Cell growth was evaluated by MTS assay (Promega). Vertical axis represents cell number as a % of no drug treatment controls.

MDA cells = assay: NCI 60-cell line screen; format: cell-based, human; details: determined by NCI
Protocol: (§1) ORI 1313 and ORI 1327 were evaluated by the National Cancer Institute (NCI) with a 60-cell line screen.

PC-3 cells [5] = assay: NCI 60-cell line screen; format: cell-based, human; details: determined by NCI
Protocol: as §1

MDA-MB-231 cells [6] = assay: Cell cycle analysis by FACS (propidium iodide), apoptotic fraction; format: cell-based, human
Protocol: Cell cycle analysis was performed using fluorescent activated cell sorter (FACS) analysis on polyamine analogue treated MDA cells (see FIGS. 7A-7C). Briefly, MDA-MB-231 cells were grown in the presence of ORI 1313 or ORI 1327 for various times then fixed with ethanol and stained with propidium iodide. Cells were analyzed by FACS, with the areas on the histograms designating DNA content and cell cycle stage: M1, G1; M2, S; M3, G2/M; M4, <2N (apoptotic cells).

[7] = tested on: MES-SA/Dx5 uterine sarcoma cell line; assay: Growth inhibition of multi-drug resistant cells, MTS assay; format: cell-based, human; details: inferred from parent vs MDR-1 expressing line
Protocol: An unexpected observation made during the cellular characterization of ORI 1313 and ORI 1327 was their growth inhibitory activity against the multi-drug resistant (MDR) uterine sarcoma cell line, MES-SA/Dx5 (see FIGS. 8A and 8B). Briefly, cells were plated at 1000 cells/well in a 96-well plate and allowed to adhere for 1 day. The indicated analogue was added and the cells were incubated for 3 days when cell growth was evaluated by MTS assay (Promega). Vertical axis represents cell number as a % of no drug treatment controls
The MES-SA/Dx5 cell line was developed by selection on doxorubicin and over-expresses the mRNA of the multi-drug resistance gene (MDR-1). The cells are thus much less sensitive to drugs exported via P-glycoprotein (P-gp). See Harker, W. G. et al. Multi-drug (pleiotropic) resistance in doxorubicin-selected variants of the human sarcoma cell line MES-SA. Cancer Research, 1985, 45, 4091-4096. […] This will be particularly advantageous in situations involving target cells expressing MDR-1.

[8] = tested on: cellular polyamine levels; assay: Intracellular polyamine levels by HPLC; format: cell-based; details: 11 hr treatment
Protocol: To determine the effects of treatment with polyamine analogues on cellular polyamine levels, intracellular polyamine levels were measured by high performance liquid chromatography (HPLC) after 11 hr treatment with ORI 1313 (32 μM) or ORI 1327 (3 μM). […] This observation is consistent with the previous observations in the field.

cell growth = assay: Co-treatment experiments on analogue cytotoxicity; format: cell-based; details: for effect of co-treatment with DFMO on results: 1 mM DFMO; for effect of co-treatment with putrescine on cytotoxic effects: 50-fold excess concentration of putrescine; for effect of co-treatment with ORI 1202 on inhibition of cell growth: polyamine transport inhibitor ORI 1202
[9] = tested on: putrescine uptake into PC-3 cells; assay: Inhibition of 3H-putrescine uptake; format: cell-based, human; details: read-out: Kiapp versus putrescine uptake into PC-3 cells
BALB/c mice [10] = details: mouse, in vivo, ip
Protocol: (§2) Chronic toxicities were evaluated by giving i.p. injections once daily for 5 consecutive days.

BALB/c mice [11] = details: mouse, in vivo, ip; remark: listed apart in the source
Protocol: as §2

BALB/c mice [12] = assay: Acute toxicity, single i.p. injection
Protocol: as §2

BALB/c mice [13] = assay: Chronic toxicity, i.p. once daily for 5 consecutive days
Protocol: as §2

melanoma cell lines = assay: NCI 60-cell line screen; format: cell-based; details: 8 melanoma lines
Protocol: as §1

[14] = tested on: putrescine uptake into MDA cells; assay: Inhibition of 3H-putrescine uptake; format: cell-based, human; details: read-out: Kiapp versus putrescine uptake into MDA cells
[15] = tested on: A375 human melanoma xenografts; assay: A375 human melanoma xenograft in nude mice; format: in vivo
Protocol: ORI was tested in a melanoma tumor xenograft tumor models in BALB/c nude mice. […] The xenograft efficacy study would be performed with two drug concentrations. There were four groups of 10 mice. Treatment groups received the maximum tolerated dose (MTD) or ½ MTD of each analogue. […] A positive control group treated with dacarbazine DTIC (dosage of 180 mg/kg i.p. once per day for 5 days) was used to validate this tumor model system.
Female BALB/c nu/nu athymic mice weighing 20 grams were the animal host for the human xenografts. The method of administration was i.p. injections with 9 mM or 4 mM ORI 1313 once daily for the duration of the study (end point when control tumors reached 2000 mg). […] DITC was administered by i.p. injection once daily for 5 days. Treatment started when the tumors reach 5 mm×5 mm size (50 mg). The mouse weight and tumor size were measured twice weekly. The tumor measurements by calipers were then converted to mg tumor volume by the formula L^2×W/2. Once the control tumors reached 2000 mg both the control and treatment group mice were weighed, sacrificed and the tumors removed. The actual weights of tumors were then used to calculate the percent growth inhibition by each analogue using the formula: % growth inhibition=(mean treated tumor weight/mean control tumor weight×100)−100.

[16] = tested on: A375 human melanoma cell line; assay: Cytotoxicity against A375 cell line; format: cell-based

SMILES | pIC50 (SK-MEL-5 cells) | pIC50 (MDA-MB-231 cells [3]) | increase over N1,N4-dibenzylputrescine in potency of cytotoxic activity against MDA cells (MDA-MB-231 cells [3]) [fold] | pIC50 (PC-3 cells [4]) | pIC50 (MDA cells) | pIC50 (PC-3 cells [5]) | substrate for the P-gp multi-drug exporter [7] | effect of co-treatment with DFMO on results (cell growth) | effect of co-treatment with putrescine on cytotoxic effects (cell growth) | effect of co-treatment with ORI 1202 on inhibition of cell growth (cell growth) | pKi [9] | tolerated dose, acute (BALB/c mice [10]) [mg/kg] | approximate maximum tolerated dosage (BALB/c mice [11]) [mg/kg] | tolerated dose, chronic (BALB/c mice [11]) [mg/kg] | dose that caused death, acute (BALB/c mice [12]) [mg/kg] | lethal dosage, chronic (BALB/c mice [13]) [mg/kg] | further results
NCCCCN [Putrescine, 1,4-diaminobutane] | – | – | – | – | – | – | – | – | – | – | – | – | – | – | – | – | Kmapp, putrescine uptake [1]: 5.2 ± 0.6 µM; Km [2]: 12.4 µM
c1ccc(N(c2ccccc2)c2ccc(CNCCCCNCc3ccc(N(c4ccccc4)c4ccccc4)cc3)cc2)cc1 [ORI 1327] | 6.15 | 6.19 | 295 | 6.19 | 8.30 | 6.09 | not substrates | did not alter | did not block | did not alter | 4.84 | 37 | ~7.5 | 7.5 | 75 | 30 | <2N DNA content (apoptotic fraction) (MDA-MB-231 cells [6]; 3 μM, 11 hr treatment): 15%; effect on cellular polyamine levels ([8]; 3 μM): no significant effects; solubility relative to lactate salt (dihydrochloride salt): less soluble; solution concentration produced (hydroxypropyl-β-cyclodextrin, 45% w/v HβC in H2O): 40 mM; maximum solubility (lactate salt, aqueous): 5 mM
c1ccc(CNCCCNCc2ccccc2)cc1 [N^1, N^3-dibenzyl analog of 1,3-diaminopropane, reference compound] | – | 4.54 | – | – | – | – | – | – | – | – | – | – | – | – | – | – | –
c1ccc2c(CNCCCCNCc3cccc4ccccc34)cccc2c1 [ORI 1313] | 5.39 | 4.92 | 16 | 4.70 | 5.64 | 4.95 | not substrates | did not alter | did not block | did not alter | 4.62 | 93 | ~40 | 40 | 186 | 80 | inhibition of growth of PC-3 cells (PC-3 cells [4]; 10 μM ORI 1313 + 5 μM Z-DEVD-fmk): 19%; inhibition of growth of PC-3 cells (PC-3 cells [4]; 10 μM ORI 1313 + 15 μM Z-DEVD-fmk): 10%; inhibition of growth of PC-3 cells (PC-3 cells [4]; 10 μM ORI 1313 alone): 46%; effectiveness against melanoma cell lines tested (melanoma cell lines): 6 of 8; <2N DNA content (apoptotic fraction) (MDA-MB-231 cells [6]; 32 μM, 11 hr treatment): 21%; <2N DNA content (apoptotic fraction) (MDA-MB-231 cells [6]; 32 μM, 24 hr treatment): 49%; <2N DNA content (apoptotic fraction) (MDA-MB-231 cells [6]; 32 μM, 48 hr treatment): 30%; effect on cellular polyamine levels ([8]; 32 μM): no significant effects; pKi [14]: 4.55; adverse findings in xenograft study ([15]; after 7 weeks of treatment): transient skin ulceration and weight loss; tumor growth inhibition ([15]; at 25 days, vs 5% dextrose control, i.p. once daily): 36%; tolerability in xenograft study ([15]; i.p. once daily, nude mice): well tolerated up to 7 weeks; tumor growth delay ([15]; vs 5% dextrose control, i.p. once daily): 6.2 days; pIC50 [16]: 5.39; solubility (dihydrochloride salt, in 5% DMSO): at least 40 mM
